Laboratory results: patent US3989701A, “Diamine-benzophenones and a process for the preparation thereof” (Richter Gedeon Vegyeszeti Gyar Rt., priority 1973, dated 1976)

What was measured:
yohimbine lethality = assay: Potentiation of yohimbine lethality; format: in vivo, CFLP male mice
Method: To investigate the yohimbine-potentiating effect, CFLP male mice each weighing 20 to 25 g. were treated orally with the compounds according to the invention, and 1 hour after this treatment yohimbine was injected subcutaneously into the animals in a dosage of 20 mg./kg.

LD50 (acute toxicity) = conditions: in vivo, po
[1] = Rotarod / ataxis and reflex retardation
liver microsomal enzymes = assay: Enzyme inductive effect (shortening of duration of sleeping after hexobarbital); format: in vivo, Wistar female rats; conditions: for Average duration of sleeping ± S.E.: Dosage 60 mg./kg. p.o., hexobarbital 40 mg./kg. i.v. 24 hours later, control 27.4 ± 3.02
Method: To investigate the enzyme inductive effect, Wistar female rats, each weighing 40 to 50 g. were treated with pure solvent, or with a dosage of 60 mg./kg. of phenobarbital or the compound to be tested, respectively. 24 hours after this treatment 40 mg./kg. of hexobarbital were administered intravenously into the animals. The decrease of the elimination period and the liver enzyme induction was expressed as the shortening of duration of sleeping.

[2] = Effect on the central nervous system; format: in vivo; conditions: in words
[3] = Antipyretic effect (yeast- and pyragro-treated rats, rectal temperature); format: in vivo, male rats; conditions: Dosage 40 mg./kg. orally; rectal temperature recorded for 5 hours
Method: To test the antipyretic effect, a 15% yeast suspension was administered to male rats each weighing 180 ±10 g. No food was given to the animals, they could consume, however, arbitrary amount of water. 16 hours after the administration of yeast the rectal temperature of the animals was taken, and the animals were treated with pyragro in an intravenous dosage of 50 M bact./animal. The compound to be tested was administered orally into the animals, thereafter the change in rectal temperature both for the treated and the control animals was recorded for 5 hours, using an "Elab" type electrothermometer. Phenacetine, used as reference substance, and the compounds of the invention were administered in dosages of 40 mg./kg. body weight.

[4] = Harmful effects on the kidneys; format: in vivo; conditions: in words, compared with phenacetine

Compound | LD50 (LD50 (acute toxicity)) [mg/kg] | Average duration of sleeping ± S.E. (liver microsomal enzymes) [min] | further results
CN1CCN(c2ccc(C(=O)c3ccccc3)cc2N)CC1 [C3, 3-amino-4-(N-methyl-piperazino)-benzophenone] | > 3000 | – | ED50 (yohimbine lethality; Mus musculus, sc, yohimbine 20 mg./kg. s.c. 1 hour after treatment, deaths counted at 24 hours, probit analysis): 30 mg/kg; antidepressant activity / yohimbine lethality increasing effect (in words) (yohimbine lethality; compared with imipramine where stated): inferior in antidepressant activity to imipramine; TD50 (in vivo): 160 mg/kg; ataxis or reflex retardation ([1]; in the active dosage): causes no ataxis or reflex retardation
CCN(c1ccccc1)c1ccc(C(=O)c2ccccc2)cc1N [C6, 3-amino-4-(N-ethyl-N-phenylamino)-benzophenone] | > 400 | 11.6 ± 2.71 | –
CCC1(c2ccccc2)C(=O)NC(=O)NC1=O [Phenobarbital, reference compound] | 240 | 5.4 ± 1.63 | –
CN(C)CCCN1c2ccccc2CCc2ccccc21 [Imipramine, 5-(3-dimethylaminopropyl)-10,11-dihydro-5H-dibenz(b,f)azepin, reference compound] | – | – | TD50 ([1]; rotarod): 28 mg/kg
CCC(=O)Nc1cc(C(=O)c2ccccc2)ccc1N1CCOCC1.Cl [C11, 3-propionylamino-4-morpholino-benzophenone HCl] | > 450 | 9.0 ± 1.30 | enzyme-inducing effect (in words) (liver microsomal enzymes; compared with phenobarbital where stated): the same in strength as for phenobarbital; effect on the central nervous system [2]: no effect on the central nervous system
Nc1cc(C(=O)c2ccccc2)ccc1N1CCOCC1 [C8, 3-amino-4-morpholino-benzophenone] | > 3000 | – | Decrease of temperature [3]: -1.0 °C; harmful effects on the kidneys [4]: no harmful effects on the kidneys
CC(C)CN(CC(C)C)c1ccc(C(=O)c2ccccc2)cc1N [C7, 3-amino-4-(N,N-diisobutylamino)-benzophenone] | > 600 | 10.0 ± 1.92 | –
CCOc1ccc(NC(C)=O)cc1 [Phenacetine, reference compound] | 2400 | – | Decrease of temperature [3]: -1.0 °C
CCCCCCCCCCCCCCCC(=O)Nc1cc(C(=O)c2ccccc2)ccc1N1CCOCC1 [C12, 3-palmitoylamino-4-morpholino-benzophenone] | > 500 | 10.4 ± 1.02 | –
